PMC10072296, “A Novel CCK Receptor GPR173 Mediates Potentiation of GABAergic Inhibition” (The Journal of Neuroscience, 2023)

Legend:
[1] = biological target: T1, GPR173 (CHO-GPR173 cells) (Homo sapiens, UniProt Q9NS66); test: Ca2+ imaging assay in CHO-GPR173 cells; assay type: cell-based
T1 construct: expressed in transfected cells; host or cells: CHO cells, lentiviral infection (pLVX-puro-GPCR), puromycin selection, monoclonal line
Procedure: CHO and infected CHO cells (CHO-GPCRs) were cultivated at 37°C in a humidified atmosphere with 5% CO2 in DMEM/F-12 medium (Thermo Fisher Scientific) supplemented with 10% FBS (Natocor Industria Biológica).
For Ca^2+ mobilization by a confocal microscope, ∼8 × 10^4 transfected cells were seeded in each well of an eight-well chambered cover glass (Thermo Fisher Scientific) the day before the Ca^2+ imaging assay. Then, 5 μM Fluo-8 (AAT Bioquest) dissolved in HHBS solution was incubated with the cells for 30 min in a cell incubator and 30 min at room temperature after removing the culture medium. These cells were washed three times with HHBS, and 360 µl HHBS was added. Subsequently, images of these cells were captured by a Zeiss 710 nonlinear optical confocal microscope before and after being treated with 10× compounds or HHBS solution.
Cells were cultured at 37°C, and 5% CO2 in DMEM/F-12 medium (Thermo Fisher Scientific) containing 10% FBS (Natocor Industria Biológica) and washed with DMEM/F-12 medium once after overnight incubation.

[2] = system: IPSCs of pyramidal neurons in auditory cortex (AC) brain slices; test: In vitro patch-clamp recording of laser-evoked IPSCs in pyramidal neurons; conditions: devazepide 60 nM in bath solution, brain slices from mDlx-DIO-ChR2-mCherry-injected CCK-Cre mice
Source text: For brain slice recording experiments, we injected rAAV9-mDlx-DIO-ChR2-mCherry-WPRE-pA (5.18E + 12 vg/ml; BrainVTA) into the AC of CCK-Cre and PV-Cre mice.
In the in vivo brain slice recording experiments, we adopted a protective cutting and recovery method to prepare acute brain slices from CCK-Cre, PV-Cre, CCK-KO, and CCK1R/2R-KO mice to achieve a higher success rate for patch clamping, as previously described ([Chen et al., 2019]). […]
We performed whole-cell recordings with a MultiClamp 700B amplifier and Digital 1440A digitizer (Molecular Devices) targeting the AC in the brain slices in room temperature aCSF containing the following (in mM): 119 NaCl, 2.5 KCl, 1.25 NaH2PO4, 24 NaHCO3, 12.5 glucose, 2 CaCl2·4H2O, and 2 MgSO4·7H2O, ∼25°C). […] We recorded IPSCs in response to the laser stimulation (1 pulse per 15 s, 5 ms in duration) under voltage-clamp recording mode (holding at −60 mV to −50 mV) for 5 min as the baseline before and for 25 min after HFLS or LFLS. […] For the normalization of recorded IPSCs in the CCK-Cre, PV-Cre, CCK-KO, and CCK1R/2R-KO mice, we selected only patched neurons with IPSCs >35 pA.

GPR173 = test: Cell surface binding assay, Flag-GPR173; set-up: species or system human; conditions: transfected HEK293T cells; HHBS with 20 mM HEPES, pH 7.4, 30 min, room temperature; Fanti-HA/Fanti-Flag, confocal; n = 33-40 cells, three independent experiments
Procedure: (§1) We transfected HEK293T cells with pCDNA3.1(+)-Flag-GPCR (purchased from Public Protein/Plasmid Library or made in our laboratory based on a pCDNA3.1(+) backbone). […] After three washes with HHBS, cells were fixed in 4% paraformaldehyde (PFA) and 4% sucrose in PBS for 15 min at room temperature. Cells were blocked in 5% normal goat serum in PBS, and staining was performed in detergent-free conditions without cell permeabilization after three washes by PBS. We used primary antibody rabbit anti-HA (catalog #8146, Cell Signaling Technology), anti-GPR173 (catalog #PA5-50 976, Thermo Fisher Scientific), and mouse anti-Flag (catalog #3724, Cell Signaling Technology) to detect HA and Flag tags. Images were captured on a Leica SP8 confocal microscope. Images within each experiment were collected using identical laser power, offset, and gain.

HTR1B = test: Cell surface binding assay, Flag-HTR1B; set-up: species or system human; conditions: transfected HEK293T cells (negative/background control); HHBS pH 7.4, 30 min, room temperature; confocal
Procedure: as §1

CCK2R = test: Cell surface binding assay, Flag-CCK2R; set-up: species or system human; conditions: transfected HEK293T cells; HHBS with 20 mM HEPES, pH 7.4, 30 min, room temperature; anti-HA/anti-Flag immunofluorescence, confocal; n = 33-40 cells, three independent experiments
Procedure: as §1

T1 sequence (Q9NS66 whole entry): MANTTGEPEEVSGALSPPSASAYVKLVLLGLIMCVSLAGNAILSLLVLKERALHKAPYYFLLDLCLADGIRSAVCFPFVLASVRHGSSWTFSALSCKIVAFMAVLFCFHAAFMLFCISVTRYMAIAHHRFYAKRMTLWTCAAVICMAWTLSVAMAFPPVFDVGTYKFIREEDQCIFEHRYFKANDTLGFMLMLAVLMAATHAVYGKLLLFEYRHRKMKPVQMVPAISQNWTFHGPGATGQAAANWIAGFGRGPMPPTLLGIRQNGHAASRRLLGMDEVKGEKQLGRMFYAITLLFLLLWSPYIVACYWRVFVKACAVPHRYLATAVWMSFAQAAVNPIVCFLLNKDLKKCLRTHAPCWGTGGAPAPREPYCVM

Antagonistic action on GPR173, rank ([1]; CHO-GPR173, 10 nM CCK8s, compared with loxiglumide, YF476 and L365,260)	IC50 ([1]; read-out: IC50, antagonism of CCK8s-induced Ca2+ response)	Compound	Block of HFLS-induced potentiation of IPSCs [2]	Binding to Flag-GPR173 (GPR173)	Binding to Flag-HTR1B (HTR1B)	Binding to Flag-CCK2R (Fanti-HA/Fanti-Flag) (CCK2R)
highest antagonistic action on GPR173	12.3 nM	CN1C(=O)[C@@H](NC(=O)c2cc3ccccc3[nH]2)N=C(c2ccccc2)c2ccccc21 [devazepide]	fully blocked the HFLS-induced potentiation of IPSCs			
		HA-tagged CCK8ns: HA-(ε-Ahx)2-CCK variant probe of nonsulfated CCK8		not HA-tagged CCK4 or CCK8ns	No binding	significantly larger ratio of CCK ligand HA-tag signal to CCK2R Flag signal (Fanti-HA/Fanti-Flag) than that of the HA-(ε-Ahx)2 control group
		HA-tagged CCK8s: HA-(ε-Ahx)2-CCK variant probe of CCK8s		could only bind to HA-tagged CCK8	No binding	significantly larger ratio of CCK ligand HA-tag signal to CCK2R Flag signal (Fanti-HA/Fanti-Flag) than that of the HA-(ε-Ahx)2 control group
